Assay results from US20240300991A1, “NUCLEOSIDE DERIVATIVE HAVING MULTI-TARGET KINASE INHIBITORY ACTIVITY AND PHARMACEUTICAL COMPOSITION FOR PREVENTING AND TREATING CANCER COMPRISING SAME” (FUTURE MEDICINE CO., LTD., priority 2021, published 2024).

What was measured:
FLT3 = target: T1, FLT3 (Homo sapiens, UniProt P36888); experiment: Kinase inhibition test (DNA-tagged kinase, affinity resin, qPCR readout); assay type: binding; design: key: (−) indicates no effect; (+) indicates weak inhibitory activity; (++) indicates a moderate level of inhibitory activity; (+++) indicates strong inhibitory activity; details: 1 μM of compound
T1 construct: made in house
T1 sequence (P36888 27-993): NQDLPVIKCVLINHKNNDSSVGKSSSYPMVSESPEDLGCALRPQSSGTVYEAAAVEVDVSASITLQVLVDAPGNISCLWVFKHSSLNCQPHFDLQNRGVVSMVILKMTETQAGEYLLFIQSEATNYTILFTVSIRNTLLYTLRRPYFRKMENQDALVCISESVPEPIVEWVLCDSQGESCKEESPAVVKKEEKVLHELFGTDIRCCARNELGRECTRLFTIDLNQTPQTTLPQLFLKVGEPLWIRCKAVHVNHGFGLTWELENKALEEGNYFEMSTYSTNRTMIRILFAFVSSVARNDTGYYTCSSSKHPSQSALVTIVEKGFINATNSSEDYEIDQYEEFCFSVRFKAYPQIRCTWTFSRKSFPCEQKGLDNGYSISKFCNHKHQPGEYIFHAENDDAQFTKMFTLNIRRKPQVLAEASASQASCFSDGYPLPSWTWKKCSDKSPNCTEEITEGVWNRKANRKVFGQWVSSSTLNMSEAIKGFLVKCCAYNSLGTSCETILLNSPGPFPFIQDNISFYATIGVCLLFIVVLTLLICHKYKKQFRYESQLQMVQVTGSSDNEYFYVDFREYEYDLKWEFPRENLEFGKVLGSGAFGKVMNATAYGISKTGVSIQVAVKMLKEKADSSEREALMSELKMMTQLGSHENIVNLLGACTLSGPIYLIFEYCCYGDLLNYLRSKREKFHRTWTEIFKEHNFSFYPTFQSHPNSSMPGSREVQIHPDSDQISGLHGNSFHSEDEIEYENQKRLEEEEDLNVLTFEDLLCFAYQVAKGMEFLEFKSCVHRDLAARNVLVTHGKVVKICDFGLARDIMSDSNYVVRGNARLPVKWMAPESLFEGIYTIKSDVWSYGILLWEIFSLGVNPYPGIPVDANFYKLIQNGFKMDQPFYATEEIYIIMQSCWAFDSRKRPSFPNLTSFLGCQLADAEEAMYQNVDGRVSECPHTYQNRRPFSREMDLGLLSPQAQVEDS
How it was run: (§1)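 Competition binding: DNA-tagged kinases (phage/E. coli or HEK-293 produced) with immobilized biotinylated ligand and test compound in DMSO, 1 h at room temperature. After washing, bound kinase eluted with 0.5 μM non-biotinylated ligand and quantified by qPCR.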

NTRK1 = target: T2, NTRK1 (Homo sapiens, UniProt P04629); experiment: as above; assay type: binding; design: key: (−) indicates no effect; (+) indicates weak inhibitory activity; (++) indicates a moderate level of inhibitory activity; (+++) indicates strong inhibitory activity; details: 1 μM of compound
T2 construct: made in house
How it was run: as §1

CSNK1D = target: T3, CSNK1D (Homo sapiens, UniProt P48730); experiment: as above; assay type: binding; design: key: (−) indicates no effect; (+) indicates weak inhibitory activity; (++) indicates a moderate level of inhibitory activity; (+++) indicates strong inhibitory activity; details: 1 μM of compound
T3 construct: made in house
How it was run: as §1

DYRK1B = target: T4, DYRK1B (Homo sapiens, UniProt Q9Y463); experiment: as above; assay type: binding; design: key: (−) indicates no effect; (+) indicates weak inhibitory activity; (++) indicates a moderate level of inhibitory activity; (+++) indicates strong inhibitory activity; details: 1 μM of compound
T4 construct: made in house
How it was run: as §1

DYRK1A = target: T5, DYRK1A (Homo sapiens, UniProt Q13627); experiment: as above; assay type: binding; design: key: (−) indicates no effect; (+) indicates weak inhibitory activity; (++) indicates a moderate level of inhibitory activity; (+++) indicates strong inhibitory activity; details: 1 μM of compound
T5 construct: made in house
How it was run: as §1

[1] = test system: SK-Hep-1 (liver cancer cells); experiment: Inhibitory activity against cancer cells (sulforhodamine B staining); assay type: cell-based; details: 3 days, SRB staining
How it was run: (§2)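 Cells pre-incubated 1 day (day-0 reference), then exposed to test compound 3 days. Sulforhodamine B staining (0.4% SRB, 1% acetic acid), dye dissolved in 10 mM Tris pH 10.0, absorbance at 515 nm. Cell division % relative to day 0 and control; IC50 by non-linear regression.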

[2] = test system: SNU638 (stomach cancer cells); experiment: as above; assay type: cell-based; details: 3 days, SRB staining
How it was run: as §2

[3] = test system: MDA-MB-231 (breast cancer cells); experiment: as above; assay type: cell-based; details: 3 days, SRB staining
How it was run: as §2

[4] = test system: PC-3 (prostate cancer cells); experiment: as above; assay type: cell-based; details: 3 days, SRB staining
How it was run: as §2

[5] = test system: HCT116 (colon cancer cells); experiment: as above; assay type: cell-based; details: 3 days, SRB staining
How it was run: as §2

A549 (lung cancer cells) = experiment: as above; assay type: cell-based; details: 3 days, SRB staining
How it was run: as §2

T3 sequence (P48730 whole entry): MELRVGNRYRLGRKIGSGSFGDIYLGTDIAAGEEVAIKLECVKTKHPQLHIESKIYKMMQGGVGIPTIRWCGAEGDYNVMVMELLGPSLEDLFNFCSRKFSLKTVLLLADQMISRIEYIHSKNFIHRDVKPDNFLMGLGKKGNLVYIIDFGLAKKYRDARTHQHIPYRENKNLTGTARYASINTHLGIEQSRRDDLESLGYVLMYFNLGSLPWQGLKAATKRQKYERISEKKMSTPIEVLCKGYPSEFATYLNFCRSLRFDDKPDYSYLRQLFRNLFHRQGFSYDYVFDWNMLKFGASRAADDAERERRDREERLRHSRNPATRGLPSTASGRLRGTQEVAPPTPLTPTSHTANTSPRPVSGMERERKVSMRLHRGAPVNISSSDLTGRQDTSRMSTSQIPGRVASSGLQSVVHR
T4 sequence (Q9Y463 whole entry): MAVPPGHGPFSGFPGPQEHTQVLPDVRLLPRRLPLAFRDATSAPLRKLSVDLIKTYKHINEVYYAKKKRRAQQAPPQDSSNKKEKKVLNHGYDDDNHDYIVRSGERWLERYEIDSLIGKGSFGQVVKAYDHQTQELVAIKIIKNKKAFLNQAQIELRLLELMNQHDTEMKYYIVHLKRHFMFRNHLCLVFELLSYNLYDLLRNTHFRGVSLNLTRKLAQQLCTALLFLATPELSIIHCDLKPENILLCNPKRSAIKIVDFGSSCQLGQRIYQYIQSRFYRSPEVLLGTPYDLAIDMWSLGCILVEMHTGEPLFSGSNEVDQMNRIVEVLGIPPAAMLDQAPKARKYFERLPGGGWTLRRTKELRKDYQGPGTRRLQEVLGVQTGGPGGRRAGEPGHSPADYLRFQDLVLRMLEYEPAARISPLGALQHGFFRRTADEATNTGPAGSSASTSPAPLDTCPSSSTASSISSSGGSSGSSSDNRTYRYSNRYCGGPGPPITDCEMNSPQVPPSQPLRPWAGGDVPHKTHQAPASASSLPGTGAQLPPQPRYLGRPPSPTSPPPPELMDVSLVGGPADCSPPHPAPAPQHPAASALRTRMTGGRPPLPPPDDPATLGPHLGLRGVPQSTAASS
T2 sequence (P04629 33-796): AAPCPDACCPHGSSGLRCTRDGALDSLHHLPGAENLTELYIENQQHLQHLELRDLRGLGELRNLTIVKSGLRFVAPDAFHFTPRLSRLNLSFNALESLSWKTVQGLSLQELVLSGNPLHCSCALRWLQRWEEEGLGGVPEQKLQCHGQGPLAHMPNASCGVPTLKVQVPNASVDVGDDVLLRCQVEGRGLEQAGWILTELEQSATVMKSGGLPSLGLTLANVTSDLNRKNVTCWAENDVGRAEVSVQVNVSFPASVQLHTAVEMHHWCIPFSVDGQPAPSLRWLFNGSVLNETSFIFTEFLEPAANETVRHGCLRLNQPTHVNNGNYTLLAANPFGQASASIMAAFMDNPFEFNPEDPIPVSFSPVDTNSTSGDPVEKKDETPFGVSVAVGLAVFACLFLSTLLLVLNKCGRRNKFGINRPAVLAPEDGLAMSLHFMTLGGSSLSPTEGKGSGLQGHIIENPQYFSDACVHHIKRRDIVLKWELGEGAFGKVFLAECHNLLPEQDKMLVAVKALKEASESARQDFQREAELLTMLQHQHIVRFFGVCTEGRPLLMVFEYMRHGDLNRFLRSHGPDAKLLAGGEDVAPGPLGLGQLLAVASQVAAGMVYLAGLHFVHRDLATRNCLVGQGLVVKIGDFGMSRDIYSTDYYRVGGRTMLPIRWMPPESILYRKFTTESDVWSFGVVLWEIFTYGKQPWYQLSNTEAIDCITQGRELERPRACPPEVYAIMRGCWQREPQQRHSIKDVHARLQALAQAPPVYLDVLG

Structure (SMILES)	FLT3 inhibitory activity (FLT3)	NTRK1 inhibitory activity (NTRK1)	CSNK1D inhibitory activity (CSNK1D)	DYRK1B inhibitory activity (DYRK1B)	DYRK1A inhibitory activity (DYRK1A)	IC50 [1] [µM]	IC50 [2] [µM]	IC50 [3] [µM]	IC50 [4] [µM]	IC50 [5] [µM]	IC50 (A549 (lung cancer cells)) [µM]
C#Cc1cn([C@@H]2S[C@H](CNC(=O)c3ccccc3)[C@@H](O)[C@H]2O)c2ncnc(N)c12 [Compound 8b]	++	+++	++	+++	+++	21.2	23.3	32.4	29.1	26.3	28.6
C#Cc1cn([C@@H]2S[C@H](CN)[C@@H](O)[C@H]2O)c2ncnc(N)c12 [Compound 10a]	+++	+++	+++	++	+++	1.4	1.33	1.87	1.98	1.35	1.58
